Measured values as given in patent US20180146698A1, “FORMULA FEED FOR POULTRY” (JXTG Nippon Oil & Energy Corporation, priority 2015, published 2018).

What was measured:
Julia Light hens [1] = assay: Chicken egg color enhancement test 1: yolk color fan value, low- and standard-corn-content feed; assay type: in vivo, chickens; conditions: for change of color fan value, low-corn-content vs standard-corn-content feed / CF value: colorant added at 4 ppm
Description: A preparation of dry cells of a Paracoccus bacterium (with an astaxanthin content of 2%) and a paprika colorant preparation (with a t-capsanthin content of 0.25%) were used as coloring agents for evaluation. Cells of a nitrosoguanidine mutant strain obtained from the Paracoccus carotinifaciens E-396 strain (FERM BP-4283) were used as carotenoid-producing Paracoccus bacterial cells for a preparation of dry cells of a Paracoccus bacterium. The preparation was cultured in a seed flask medium and then cultured in a main culture medium at 28° C. under aerobic conditions until the bacterial cell concentration reached the maximum level. Next, the cultured cells were collected and recovered using a centrifuge. The recovered Paracoccus bacterial cells were dried using a double drum dryer at a drum rotation speed of 3.5 rpm and a drum temperature of 140° C. The average particle size (volume particle size D50) of the obtained power was approximately […]. The powder was further finely powderized (pulverized) using a jet mill (Seishin Enterprise Co., Ltd.) so that the average particle size (D50) became 9 μm. The obtained product was used as a preparation of dry cells of a Paracoccus bacterium. As a paprika colorant preparation, Color Up (a product with a total xanthophyll concentration of 5 g/kg, Kohkin Chemical Co., Ltd.) was used. The above preparations were added to a low-corn-content feed and a standard-corn-content feed listed in Table 1, thereby preparing formula feeds each containing astaxanthin or t-capsanthin at a final concentration of 1, 2, 4, or 8 ppm. Table 2 lists measured concentrations of astaxanthin and t-capsanthin contained in the actually produced formula feeds. Julia Light hens were used for tests. Ten chickens were provided for each test plot. The acclimatization period was set to 2 weeks. Eggs collected in Week 2, during which the color fan value became stabilized, or later, were evaluated. Eggs were collected from each test plot. The color fan values of 10 chicken eggs were measured using Egg Multitester EMT-7300 (JA Z-Tamago Co., Ltd.) for each test plot. The yolk carotenoid concentration was determined for 3 eggs for each test plot. FIGS. 1 and 2 show the relationship between the concentrations of astaxanthin and t-capsanthin in both feeds and the yolk color fan values of the obtained eggs. Based on the results of FIGS. 1 and 2, the concentrations of astaxanthin and t-capsanthin to be added to the low-corn-content feed in order to achieve a desired color fan value of 10 to 15 were calculated (Table 3). For example, in order to achieve a color fan value of 13, astaxanthin may be added to the low-corn-content feed so as to result in a final concentration of 2.2 ppm. Meanwhile, t-capsanthin needs to be added so as to result in a final concentration of 4.3 ppm.

chickens [2] = assay: Chicken egg color enhancement test 2: yolk color fan value, feeds with corn contents of 30% to 50%; assay type: in vivo; conditions: for color fan value compared with t-capsanthin: corn contents of 30% and 50%
Description: The effects of the present invention were confirmed using feeds with corn contents of 30% to 50% in the same manner as in Example 1. Formula feeds were prepared by adding astaxanthin or t-capsanthin to feeds with the compositions listed in Table 5 so as to result in a final concentration of 1 to 16 ppm. In this Example, the feeds were the same except the corn content and the content of brown rice, which is added depending on a decrease in the corn content, and corn-derived corn gluten meal was not mixed therein. FIGS. 8a and 8b show the relationship between the astaxanthin and t-capsanthin concentrations in the feeds with corn contents of 30% and 50% and the yolk color fan values for the obtained eggs. Based on the results of FIGS. 8a and 8b, the concentrations of astaxanthin and t-capsanthin to be added to a feed in order to achieve a desired color fan value of 10 to 15 were calculated for feeds with corn contents of 30% and 50% (Table 6).

chickens [3] = assay: Yolk color measurement using colorimeter 2 (eggs of Example 8); assay type: in vivo; conditions: 2 ppm or 4 ppm; corn contents of 0% to 30%
Description: The yolk color of eggs obtained in Example 8 was measured using a colorimeter (CM-700d, Konica Minolta Inc.). FIGS. 14a to 14c show the measurement results of the L*, a*, and b* values, respectively.

Julia Light hens [4] = assay: Yolk carotenoid concentration by HPLC, eggs of Example 1; assay type: in vivo, chickens; conditions: colorant added at 1 to 8 ppm
Description: Eggs were collected from each test plot. The color fan values of 10 chicken eggs were measured using Egg Multitester EMT-7300 (JA Z-Tamago Co., Ltd.) for each test plot. The yolk carotenoid concentration was determined for 3 eggs for each test plot.
Carotenoid quantities in the yolk and each feed were determined via high performance liquid chromatography (HPLC) as described below.
Two columns (Inertsil SIL-100A, 5 μm (ϕ 4.6×250 mm), GL Sciences) were connected in series for use. Elution was carried out with the introduction of an n-hexane/tetrahydrofuran/methanol liquid mixture (40:20:1) as a mobile phase at a constant temperature (around room temperature) and a flow rate of 1.0 mL per minute. Upon determination, samples were each dissolved in tetrahydrofuran and appropriately diluted with the mobile phase such that injection volume was adjusted to 20 μL. The detection for column eluate was carried out at a wavelength of 470 nm.
The yolk carotenoid concentration of eggs obtained in Example 1 was determined by the method described in Example 1 for three eggs for each test plot.
The standard-corn-content feed and the low-corn-content feed were compared in terms of the colorant concentration in the yolk when the coloring agents used in Example 1 were added to each feed at concentrations of 1 to 8 ppm.

chickens [5] = assay: Chicken egg color enhancement test 3: yolk color fan value, feeds with corn contents of 0% to 30%; assay type: in vivo; conditions: coloring agent 2 ppm or 4 ppm
Description: The effects of the present invention were confirmed using feeds with corn contents of 0% to 30% in the same manner as in Example 1.
Formula feeds were prepared by adding astaxanthin or t-capsanthin to feeds with the compositions listed in Table 7 so as to result in a final concentration of 2 ppm or 4 ppm. In this Example, the feeds were the same except the corn content and the content of brown rice, which is added depending on a decrease in the corn content, and corn-derived corn gluten meal was not mixed therein.

chickens [6] = assay: Yolk color measurement using colorimeter 1 (eggs of Example 5); assay type: in vivo; conditions: coloring agent 8 ppm or less; corn content 30% to 50%
Description: The yolk color was measured using a colorimeter (CM-700d, Konica Minolta Inc.) for eggs obtained in Example 5 and eggs obtained by using formula feeds listed in Table 5, which had been prepared by adding astaxanthin or t-capsanthin to a feed with a corn content of 40% so as to result in a final concentration of 2 ppm. FIGS. 9a to 9c show the measurement results of the L*, a*, and b* values, respectively.

chickens [7] = assay: Yolk carotenoid content and composition 3 (eggs of Example 8); assay type: in vivo; conditions: 2 ppm or 4 ppm; corn contents of 0% to 30%; fed 2 to 4 weeks
Description: The yolk carotenoid concentration in eggs obtained in Example 8 was determined for five eggs for each test plot in the same manner as in Example 1.

[8] = cited from earlier work
[9] = cited from earlier work; remark: listed apart in the source
chickens [10] = assay: Yolk carotenoid content and composition 2 (eggs of Examples 5 and 6); conditions: corn contents of 30% to 50%; 1 to 16 ppm; fed 2 to 4 weeks
[11] = desired CF value 10, low-corn-content feed
[12] = desired CF value 11, low-corn-content feed
[13] = desired CF value 12, low-corn-content feed
[14] = desired CF value 13, low-corn-content feed
[15] = desired CF value 14, low-corn-content feed
[16] = desired CF value 10, 30% Corn feed
[17] = desired CF value 10, 50% Corn feed
[18] = desired CF value 11, 30% Corn feed
[19] = desired CF value 11, 50% Corn feed
[20] = desired CF value 12, 30% Corn feed
[21] = desired CF value 12, 50% Corn feed
[22] = desired CF value 13, 30% Corn feed
[23] = desired CF value 13, 50% Corn feed
[24] = desired CF value 14, 30% Corn feed
[25] = desired CF value 14, 50% Corn feed
[26] = desired CF value 15, 30% Corn feed
[27] = desired CF value 15, 50% Corn feed

CC1=C(/C=C/C(C)=C/C=C/C(C)=C/C=C/C=C(C)/C=C/C=C(C)/C=C/C(=O)[C@]2(C)C[C@@H](O)CC2(C)C)C(C)(C)C[C@H](O)C1 (relative stereo) [t-Capsanthin, trans-capsanthin, reference compound]
change of color fan value, low-corn-content vs standard-corn-content feed (Julia Light hens [1]): did not increase
CF value (Julia Light hens [1]; low-corn-content feed): 12.2
CF value (Julia Light hens [1]; standard-corn-content feed): 12.7
Colorant concentration in feed necessary for achieving the desired CF value (Julia Light hens [1]; [11]): 1.8 ppm
Colorant concentration in feed necessary for achieving the desired CF value (Julia Light hens [1]; [12]): 2.4 ppm
Colorant concentration in feed necessary for achieving the desired CF value (Julia Light hens [1]; [13]): 3.2 ppm
Colorant concentration in feed necessary for achieving the desired CF value (Julia Light hens [1]; [14]): 4.3 ppm
Colorant concentration in feed necessary for achieving the desired CF value (Julia Light hens [1]; [15]): 6.0 ppm
Colorant concentration in feed to achieve desired CF value (chickens [2]; [16]): 2.1 ppm
Colorant concentration in feed to achieve desired CF value (chickens [2]; [17]): 2.4 ppm
Colorant concentration in feed to achieve desired CF value (chickens [2]; [18]): 2.8 ppm
Colorant concentration in feed to achieve desired CF value (chickens [2]; [19]): 3.1 ppm
Colorant concentration in feed to achieve desired CF value (chickens [2]; [20]): 3.6 ppm
Colorant concentration in feed to achieve desired CF value (chickens [2]; [21]): 4.0 ppm
Colorant concentration in feed to achieve desired CF value (chickens [2]; [22]): 4.7 ppm
Colorant concentration in feed to achieve desired CF value (chickens [2]; [23]): 5.2 ppm
Colorant concentration in feed to achieve desired CF value (chickens [2]; [24]): 6.4 ppm
Colorant concentration in feed to achieve desired CF value (chickens [2]; [25]): 6.8 ppm
Colorant concentration in feed to achieve desired CF value (chickens [2]; [26]): 9.8 ppm
Colorant concentration in feed to achieve desired CF value (chickens [2]; [27]): 9.7 ppm
a* value (red color) of yolk in relation to corn content (chickens [3]): increased in proportional to the corn content

CC1=C(/C=C/C(C)=C/C=C/C(C)=C/C=C/C=C(C)/C=C/C=C(C)/C=C/C2=C(C)C(=O)[C@@H](O)CC2(C)C)C(C)(C)C[C@H](O)C1=O [Astaxanthin, astaxanthin]
amount of astaxanthin relative to t-capsanthin to achieve the desired color fan value (Julia Light hens [1]; color fan value of 13, low-corn-content feed): approximately 51%
change of color fan value, low-corn-content vs standard-corn-content feed (Julia Light hens [1]): increased
CF value (Julia Light hens [1]; standard-corn-content feed): 12.8
Astaxanthin/t-Capsanthin ratio (Julia Light hens [1]; [11]): 0.56
Colorant concentration in feed necessary for achieving the desired CF value (Julia Light hens [1]; [11]): 1.0 ppm
Astaxanthin/t-Capsanthin ratio (Julia Light hens [1]; [12]): 0.54
Colorant concentration in feed necessary for achieving the desired CF value (Julia Light hens [1]; [12]): 1.3 ppm
Astaxanthin/t-Capsanthin ratio (Julia Light hens [1]; [13]): 0.53
Colorant concentration in feed necessary for achieving the desired CF value (Julia Light hens [1]; [13]): 1.7 ppm
Astaxanthin/t-Capsanthin ratio (Julia Light hens [1]; [14]): 0.51
Colorant concentration in feed necessary for achieving the desired CF value (Julia Light hens [1]; [14]): 2.2 ppm
Astaxanthin/t-Capsanthin ratio (Julia Light hens [1]; [15]): 0.53
Colorant concentration in feed necessary for achieving the desired CF value (Julia Light hens [1]; [15]): 3.2 ppm
Colorant concentration in feed necessary for achieving the desired CF value (Julia Light hens [1]; desired CF value 15, low-corn-content feed): 7.0 ppm
yolk colorant concentration, low-corn-content vs standard-corn-content feed (Julia Light hens [4]): greater than that in eggs obtained from chickens fed with the standard-corn-content feed
color fan value compared with t-capsanthin (chickens [2]; coloring agent 1 to 8 ppm): greater than those obtained using t-capsanthin
color fan value compared with t-capsanthin (chickens [2]; coloring agent 16 ppm): no significant difference
Astaxanthin/t-Capsanthin ratio (chickens [2]; [16]): 62%
Colorant concentration in feed to achieve desired CF value (chickens [2]; [16]): 1.3 ppm
Astaxanthin/t-Capsanthin ratio (chickens [2]; [17]): 58%
Colorant concentration in feed to achieve desired CF value (chickens [2]; [17]): 1.4 ppm
Astaxanthin/t-Capsanthin ratio (chickens [2]; [18]): 61%
Colorant concentration in feed to achieve desired CF value (chickens [2]; [18]): 1.7 ppm
Astaxanthin/t-Capsanthin ratio (chickens [2]; [19]): 61%
Colorant concentration in feed to achieve desired CF value (chickens [2]; [19]): 1.9 ppm
Astaxanthin/t-Capsanthin ratio (chickens [2]; [20]): 61%
Colorant concentration in feed to achieve desired CF value (chickens [2]; [20]): 2.2 ppm
Astaxanthin/t-Capsanthin ratio (chickens [2]; [21]): 63%
Colorant concentration in feed to achieve desired CF value (chickens [2]; [21]): 2.5 ppm
Astaxanthin/t-Capsanthin ratio (chickens [2]; [22]): 64%
Colorant concentration in feed to achieve desired CF value (chickens [2]; [22]): 3.0 ppm
Astaxanthin/t-Capsanthin ratio (chickens [2]; [23]): 65%
Colorant concentration in feed to achieve desired CF value (chickens [2]; [23]): 3.4 ppm
Astaxanthin/t-Capsanthin ratio (chickens [2]; [24]): 63%
Colorant concentration in feed to achieve desired CF value (chickens [2]; [24]): 4.0 ppm
Astaxanthin/t-Capsanthin ratio (chickens [2]; [25]): 69%
Colorant concentration in feed to achieve desired CF value (chickens [2]; [25]): 4.7 ppm
Astaxanthin/t-Capsanthin ratio (chickens [2]; [26]): 64%
Colorant concentration in feed to achieve desired CF value (chickens [2]; [26]): 6.3 ppm
Astaxanthin/t-Capsanthin ratio (chickens [2]; [27]): 82%
Colorant concentration in feed to achieve desired CF value (chickens [2]; [27]): 8.0 ppm
color fan value compared with t-capsanthin (chickens [5]): greater than that achieved by using t-capsanthin
a* value (red color) of yolk compared with t-capsanthin (chickens [6]): greater than that obtained with the addition of t-capsanthin
concentration transferred to the yolk compared with t-capsanthin (chickens [7]): greater than that of t-capsanthin
a* value (red color) of yolk in relation to corn content (chickens [3]): did not cause the a* value to significantly vary
singlet oxygen quenching activity, stronger compared with vitamin E [8]: about 500 fold
lipid peroxidation inhibition activity, stronger compared with vitamin E [9]: about 1000 fold
amount of colorant accumulated in the yolk in relation to corn content (chickens [10]): tended to increase as the corn content decreased
